Reference: patent publication US4447422A, “Penicillins and compositions containing them” (Beecham Group p.1.c., priority 1981, dated 1984)
Values after ≈ are worked out from the molar mass of the structure shown. Where a name gives a salt, the structure may show the parent alone.

Experiments:
E coli NCTC 10418 = experiment: antibacterial activity (MIC); type: cell-based; conditions: Escherichia coli, NCTC10418; Table 2; gram negative organism E. coli NCTC 10418
Staph aureus Oxford = experiment: antibacterial activity (MIC); type: cell-based; conditions: Staphylococcus aureus; Table 2; gram positive organism Staph. aureus Oxford; read-out: MIC

| Structure (SMILES) | MIC (E coli NCTC 10418) [µg/mL] | MIC (Staph aureus Oxford) [µg/mL] |
| --- | --- | --- |
| CC1(C)S[C@@H]2[C@H](NC(=O)[C@H](NC(=O)c3cnc(NCCCc4ccccc4)nc3O)c3ccccc3)C(=O)N2[C@H]1C(=O)O [Example 3, 6β-[D-2-(2-(3-phenylpropyl-1-amino)-4-hydroxypyrimidine-5-carbonylamino)-2-phenyl] acetamido penicillanic acid] | 5 (≈ 8.27 µM) | 1.2 (≈ 1.98 µM) |
| CC1(C)S[C@@H]2[C@H](NC(=O)[C@H](NC(=O)c3cnc(NCc4ccccc4)nc3O)c3ccc(O)cc3)C(=O)N2[C@H]1C(=O)O [Example 4, 6β-[D-2-(2-Benzylamino-4-hydroxypyrimidine-5-carbonylamino)-2-(4-hydroxyphenyl)] acetamido penicillanic acid disodium salt] | 5 | 1.25 |
| CC1(C)S[C@@H]2[C@H](NC(=O)[C@H](NC(=O)c3cnc(NCCc4ccccc4)nc3O)c3ccc(O)cc3)C(=O)N2[C@H]1C(=O)O [Example 5, 6β-[D-2-(2-(2-phenylethyl-1-amino)-4-hydroxypyrimidine-5-carbonylamino)-2-(4-hydroxyphenyl)] acetamido penicillanic acid] | 5 (≈ 8.24 µM) | 1.2 (≈ 1.98 µM) |
| CC1(C)S[C@@H]2[C@H](NC(=O)[C@H](NC(=O)c3cnc(NCc4ccc(Cl)cc4)nc3O)c3ccccc3)C(=O)N2[C@H]1C(=O)O [Example 6, 6β-D-[2-(2-[4Chlorobenzylamino]-4-hydroxypyrimidine-5-carbonylamino)-2-phenyl] acetamido penicillanic acid] | 5 (≈ 8.18 µM) | 0.2 (≈ 0.327 µM) |
| CC1(C)S[C@@H]2[C@H](NC(=O)[C@H](NC(=O)c3cnc(NCc4ccc(S(N)(=O)=O)cc4)nc3O)c3ccccc3)C(=O)N2[C@H]1C(=O)O [Example 7, 6β-[D-2-(2-[4-sulphonamidobenzylamino]-4-hydroxypyrimidine-5-carbonylamino)-2-phenyl]acetamido penicillanic acid, disodium salt] | 10 | 2.5 |
| COc1cc(CNc2ncc(C(=O)N[C@@H](C(=O)N[C@@H]3C(=O)N4[C@@H]3SC(C)(C)[C@@H]4C(=O)O)c3ccccc3)c(O)n2)ccc1O [Example 8, 6β-[D-2-(2[4-Hydroxy-3-methoxybenzylamino]-4-hydroxypyrimidine-5-carbonylamino)-2-phenyl] acetamido penicillanic acid, disodium salt] | 10 | 1.2 |
| COc1ccc(CNc2ncc(C(=O)N[C@@H](C(=O)N[C@@H]3C(=O)N4[C@@H]3SC(C)(C)[C@@H]4C(=O)O)c3ccccc3)c(O)n2)cc1 [Example 9, 6β-[D-2-(2-[4-Methoxybenzylamino]-4-hydroxypyrimidine-5-carbonylamino)-2-phenyl] acetamido penicillanic acid, disodium salt] | 5 | 0.25 |
| CC1(C)S[C@@H]2[C@H](NC(=O)[C@H](NC(=O)c3cnc(NCc4ccco4)nc3O)c3ccccc3)C(=O)N2[C@H]1C(=O)O [Example 10, 6β-[D-2-(2-Furfurylamino-4-hydroxypyrimidine-5-carbonylamino)-2-phenyl] acetamido penicillanic acid, disodium salt] | 5 | 1.2 |
| CNc1ncc(C(=O)N[C@@H](C(=O)N[C@@H]2C(=O)N3[C@@H]2SC(C)(C)[C@@H]3C(=O)O)c2ccccc2)c(O)n1 [Example 11, 6β-D-2-(2-Methylamino-4-hydroxypyrimidine-5-carbonylamino)-2-phenyl] acetamido penicillanic acid, disodium salt] | 25 | 2.5 |
| COCCCNc1ncc(C(=O)N[C@@H](C(=O)N[C@@H]2C(=O)N3[C@@H]2SC(C)(C)[C@@H]3C(=O)O)c2ccccc2)c(O)n1 [Example 12, 6β-[D-2-(2-[3-methoxypropyl-1-amino]-4-hydroxypyrimidine-5-carbonylamino)-2-phenyl] acetamido penicillanic acid, disodium salt] | 5 | 1.2 |
| COCCNc1ncc(C(=O)N[C@@H](C(=O)N[C@@H]2C(=O)N3[C@@H]2SC(C)(C)[C@@H]3C(=O)O)c2ccccc2)c(O)n1 [Example 13, 6β-[D-2-(2-Methoxyethyl-1-amino]-4-hydroxypyrimidine-5-carbonylamino)-2-phenyl] acetamido penicillanic acid, disodium salt] | 5 | 0.5 |
| CCSCCNc1ncc(C(=O)N[C@@H](C(=O)N[C@@H]2C(=O)N3[C@@H]2SC(C)(C)[C@@H]3C(=O)O)c2ccc(O)cc2)c(O)n1 [Example 14, 6β-[D-2-(2-[2-(ethylthio)ethyl-1-amino]-4-hydroxypyrimidine-5-carbonylamino)-2-(4-hydroxyphenyl)]acetamidopenicillanic acid, disodium salt] | 2.5 | 1.2 |
| CCCNc1ncc(C(=O)N[C@@H](C(=O)N[C@@H]2C(=O)N3[C@@H]2SC(C)(C)[C@@H]3C(=O)O)c2ccccc2)c(O)n1 [Example 15, 6β-[D-2-(2-n-propylamino-4-hydroxypyrimidine-5-carbonylamino)-2-phenyl] acetamido penicillanic acid, disodium salt] | 2.5 | 0.5 |
| CCCCNc1ncc(C(=O)N[C@@H](C(=O)N[C@@H]2C(=O)N3[C@@H]2SC(C)(C)[C@@H]3C(=O)O)c2ccc(O)cc2)c(O)n1 [Example 17, 6β-[D-2-(2-n-Butylamino-4-hydroxypyrimidine-5-carbonylamino)-2-(4-hydroxyphenyl)] acetamido penicillanic acid, disodium salt] | 5 | 2.5 |
| CCCCCNc1ncc(C(=O)N[C@@H](C(=O)N[C@@H]2C(=O)N3[C@@H]2SC(C)(C)[C@@H]3C(=O)O)c2ccccc2)c(O)n1 [Example 18, 6β-[D-2-(2-n-Pentylamino-4-hydroxypyrimidine-5-carbonylamino)-2-phenyl] acetamido penicillanic acid, disodium salt] | 1.25 | 1.25 |
| CCCCCCNc1ncc(C(=O)N[C@@H](C(=O)N[C@@H]2C(=O)N3[C@@H]2SC(C)(C)[C@@H]3C(=O)O)c2ccccc2)c(O)n1 [Example 19, 6β-[D-2-(2-n-hexylamino-4-hydroxypyrimidine-5-carbonylamino)-2-phenyl] acetamido penicillanic acid, disodium salt] | 1.2 | 0.5 |
| CCCCCCCCNc1ncc(C(=O)N[C@@H](C(=O)N[C@@H]2C(=O)N3[C@@H]2SC(C)(C)[C@@H]3C(=O)O)c2ccccc2)c(O)n1 [Example 20, 6β-[D-2-(2-n-Octylamino-4-hydroxypyrimidine-5-carbonylamino)-2-phenyl] acetamido penicillanic acid, disodium salt] | 10 | 2.5 |
| C=CCNc1ncc(C(=O)N[C@@H](C(=O)N[C@@H]2C(=O)N3[C@@H]2SC(C)(C)[C@@H]3C(=O)O)c2ccccc2)c(O)n1 [Example 21, 6β-[D-2-(2-Allylamino-4-hydroxypyrimidine-5-carbonylamino)2-phenyl] acetamido penicillanic acid, disodium salt] | 5 | 0.2 |
| CCCC(=O)Nc1ncc(C(=O)N[C@@H](C(=O)N[C@@H]2C(=O)N3[C@@H]2SC(C)(C)[C@@H]3C(=O)O)c2ccccc2)c(O)n1 [Example 22, 6β-[D-2-(2-n-butyrylamino-4-hydroxypyrimidine-5-carbonylamino)-2-phenyl] acetamido penicillanic acid, disodium salt] | 5 | 0.5 |
| CC1(C)S[C@@H]2[C@H](NC(=O)[C@H](NC(=O)c3cnc(NC(=O)c4ccccc4)nc3O)c3ccccc3)C(=O)N2[C@H]1C(=O)O [Example 23, 6β-[D-2-(2-benzoylamino-4-hydroxypyrimidine-5-carbonylamino)-2-phenyl] acetamido penicillanic acid, disodium salt] | 5 | 0.5 |
| CC(C)COC(=O)Nc1ncc(C(=O)N[C@@H](C(=O)N[C@@H]2C(=O)N3[C@@H]2SC(C)(C)[C@@H]3C(=O)O)c2ccccc2)c(O)n1 [Example 24, 6β-D-2-(2-Isobutyloxycarbonylamino-4-hydroxypyrimidine-5-carbonylamino)-2-phenyl]acetamido penicillanic acid, disodium salt] | 5 | 0.5 |
| CC1(C)S[C@@H]2[C@H](NC(=O)[C@H](NC(=O)c3cnc(NC(=O)OCc4ccccc4)nc3O)c3ccccc3)C(=O)N2[C@H]1C(=O)O [Example 25, 6β-D-2-(2-benzyloxycarbonylamino-4-hydroxypyrimidine-5-carbonylamino-2-phenyl] acetamido penicillanic acid, disodium salt] | 2.5 | 0.2 |
